Assay results as given in patent US20230061736A1, “GPR119 AGONISTS” (Kallyope, Inc., priority 2019, published 2023).

Target: T1, human GPR119 (hGPR119) (Homo sapiens, UniProt Q8TDV5)
T1 construct: expressed in transfected cells
T1 sequence (Q8TDV5 1-335): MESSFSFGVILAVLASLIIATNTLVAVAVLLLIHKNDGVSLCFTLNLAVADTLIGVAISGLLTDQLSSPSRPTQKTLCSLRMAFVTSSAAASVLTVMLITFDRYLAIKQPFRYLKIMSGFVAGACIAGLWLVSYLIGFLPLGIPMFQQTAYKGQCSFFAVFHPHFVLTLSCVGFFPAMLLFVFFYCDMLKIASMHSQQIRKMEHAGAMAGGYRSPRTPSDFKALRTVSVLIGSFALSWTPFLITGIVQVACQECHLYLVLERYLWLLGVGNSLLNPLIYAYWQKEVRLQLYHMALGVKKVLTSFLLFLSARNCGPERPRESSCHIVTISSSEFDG
Experiment: cAMP accumulation assay (cAMP Gs dynamic HTRF kit)
Assay type: cell-based
Details: CHO-K1 cells stably expressing hGPR119, 4-parameter fit; for Emax: 1 h, % activity normalized to Max/Min controls; for EC50: cAMP accumulation
Outline: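 Read-out is HTRF 665/620 nm ratio after 1 h detection at ambient temperature, converted to % activity against positive and negative controls, EC50 and Max activity by 4-parameter fit. Compounds were titrated onto ~10,000 thawed hGPR119-CHO-K1 cells/well for 60 min at 37° C/5% CO2.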

Row | Structure (SMILES) | Emax [%] | EC50 [nM]
1 | COCc1cnc(N2CCC(CCCOc3ccc(CC(=O)N4CC(CNCCNC(=O)NC(CO)(CO)CO)C4)c(F)c3)CC2)nc1 [Example 81, 1-[2-[[1-[2-[2-fluoro-4-[3-[1-[5-(methoxymethyl)pyrimidin-2-yl]-4-piperidyl]propoxy]phenyl]acetyl]azetidin-3-yl]methylamino]ethyl]-3-[2-hydroxy-1,1-bis(hydroxymethyl)ethyl]urea] | 100 to 130 | –
2 | O=C(Cc1ccc(OCCCC2CCN(c3ncc(Cl)cn3)CC2)cc1F)N1CC(CO)(CO)C1 [Example 9, 1-[3,3-bis(hydroxymethyl)azetidin-1-yl]-2-[4-[3-[1-(5-chloropyrimidin-2-yl)-4-piperidyl]propoxy]-2-fluoro-phenyl]ethanone] | 100 to 130 | ≤ 100
3 | CCCc1cnc(N2CCC(CCCOc3cc(F)c(CC(=O)NCCCCC[N+](CC)(CC)CC)c(F)c3)CC2)nc1 [Example 4, 5-[[2-[2,6-difluoro-4-[3-[1-(5-propylpyrimidin-2-yl)-4-piperidyl]propoxy]phenyl]acetyl]amino] pentyl-triethyl-ammonium] | 100 to 130 | 100 to 1000
4 | O=C(NCC(O)(CO)CO)C1CN(C(=O)Cc2ccc(OCCCC3CCN(c4ncc(Cl)cn4)CC3)cc2F)C1 [Example 30, 1-[2-[4-[3-[1-(5-chloropyrimidin-2-yl)-4-piperidyl]propoxy]-2-fluoro-phenyl]acetyl]-N-[2,3-dihydroxy-2-(hydroxymethyl)propyl]azetidine-3-carboxamide] | 100 to 130 | ≤ 100

The next lines start with the values.

Row | Emax [%] | EC50 [nM] | Structure (SMILES)
5 | ≥ 130 | ≤ 100 | CCc1cnc(N2CCC(CCCOc3ccc(CC(=O)N4CC(CNC(CO)(CO)CO)C4)c(F)c3)CC2)nc1 [Example 64, 1-(3-(((1,3-dihydroxy-2-(hydroxymethyl)propan-2-yl)amino)methyl)azetidin-1-yl)-2-(4-(3-(1-(5-ethylpyrimidin-2-yl)piperidin-4-yl)propoxy)-2-fluorophenyl)ethan-1-one]
6 | ≥ 130 | ≤ 100 | O=C(Cc1c(F)cc(OCCCC2CC3(CCN(c4ncc(Cl)cn4)CC3)C2)cc1F)N1CC(CNC[C@H](O)[C@@H](O)[C@H](O)[C@H](O)CO)C1 [Example 116, 2-[4-[3-[7-(5-chloropyrimidin-2-yl)-7-azaspiro[3.5]nonan-2-yl]propoxy]-2,6-difluoro-phenyl]-1-[3-[[[(2S,3R,4R,5R)-2,3,4,5,6-pentahydroxyhexyl]amino]methyl]azetidin-1-yl]ethanone]
7 | 100 to 130 | ≤ 100 | CCc1cnc(N2CCC(CCCOc3cc(F)c(CC(=O)NC(CO)(CO)CO)c(F)c3)CC2)nc1 [Example 7, 2-[4-[3-[1-(5-ethylpyrimidin-2-yl)-4-piperidyl]propoxy]-2,6-difluoro-phenyl]-N-[2-hydroxy-1,1-bis(hydroxymethyl)ethyl]acetamide]
8 | 100 to 130 | ≤ 100 | CCOc1cnc(N2CCC(CCCOc3ccc(CC(=O)N4CC[C@@H](CNCC(CO)(CO)CO)C4)c(F)c3)CC2)nc1 [Example 154, 2-[4-[3-[1-(5-ethoxypyrimidin-2-yl)-4-piperidyl]propoxy]-2-fluoro-phenyl]-1-[(3S)-3-[[[3-hydroxy-2,2-bis(hydroxymethyl)propyl]amino]methyl]pyrrolidin-1-yl]ethanone]
9 | 100 to 130 | ≤ 100 | O=C(Cc1ccc(OCCCC2CCN(c3ncc(Cl)cn3)CC2)cc1F)N1CC(O)(CNC[C@H](O)[C@H](O)[C@H](O)CO)C1 [Example 185, 2-[4-[3-[1-(5-chloropyrimidin-2-yl)-4-piperidyl]propoxy]-2-fluoro-phenyl]-1-[3-hydroxy-3-[[[(2S,3S,4R)-2,3,4,5-tetrahydroxypentyl]amino]methyl]azetidin-1-yl]ethanone]
10 | 100 to 130 | 100 to 1000 | O=C(Cc1ccc(OCCCC2CCN(c3ncc(Cl)cn3)CC2)cc1F)NCCCCCC(=O)NC(CO)(CO)CO [Example 18, 6-[[2-[4-[3-[1-(5-chloropyrimidin-2-yl)-4-piperidyl]propoxy]-2-fluoro-phenyl]acetyl]amino]-N-[2-hydroxy-1,1-bis(hydroxymethyl)ethyl]hexanamide]
